Experiments:
[1] = Water solubility (in words); assay type: physicochemical
p53 in HepG2 cells = test: Western blot, p53 protein level; assay type: cell-based, human
Experimental: (§1) Cells were lysed with Pro-PREP (IntronBio, Korea) according to the manufacturer’s protocol. The samples were centrifuged at 2000 × g and 4 °C for 15 min. The supernatant was collected to a 1.5 mL ep-tube and stored at −80 °C. After protein quantification using Pierce^TM BCA assay kit (Thermo Fisher Scientific, USA), the same amount of protein was diluted in water containing 5×loading buffer (Biosesang, Korea) and loaded on SDS-PAGE gel (Bio-rad, USA). After electrophoresis in Tris-Glycine SDS buffer at 80 V for 120 min, proteins in a gel were transferred to a nitrocellulose membrane (0.45 μm, Bio-rad, USA) in 1× Tris-Glycine Native Buffer (GenDEPOT, Korea) with 10% methanol at 90 V, and 4 °C for 90 min under stirring condition. The membrane was blocked with 5% milk to inhibit non-specific binding and immersed overnight at 4 °C in the presence of primary antibodies; GAPDH (1:2000, Abcam, USA), p53 (1:1000, Cell signaling, USA), MDM2 (1:1000, Cell signaling, USA), Bcl2 (1:1000, Cell signaling, USA) and CytC (1:1000, Cell signaling, USA). Anti-rabbit goat pAb, horseradish peroxidase (HRP)-linked antibody (1:5000, Abcam, USA) was used as a secondary antibody and the membrane was incubated for 1 h. After the reaction with the detection agent West Pico PLUS (Thermo Fisher Scientific, USA), bands of protein were monitored by a ImageQuant^TM LAS 4000 mini (GE Healthcare, USA). […]

HepG2 cells [2] = test: CCK-8 cell viability; assay type: cell-based, human; conditions: 24 h, 50
Experimental: (§2) Human liver cancer cell line HepG2 were grown in DMEM containing 10% FBS and 1% penicillin/streptomycin at 37 °C in a humidified atmosphere of 5% CO2. HepG2 cells (1.2 × 10^5 cells/well) were seeded in a 4-well glass plate for 24 h. Then, SNCPs@st-p53pep (0.02 mg/mL) and st-p53pep alone (2 μM) were added to each well in a serum-free medium for 4 h. After incubation, the cells were carefully rinsed with PBS, and the medium was replaced with a serum-containing fresh medium. After the nucleus was stained with Hoechst 33342 staining kit by manufacturer’s protocol, bright field and fluorescence images were obtained by using a DeltaVision Elite Microscopy System (GE Healthcare, USA). To observe the distribution of SNCP8 and st-p53pep in cells, TAMRA-labeled SNCP8@FAM-labeled st-p53pep (0.25 mg/mL) was treated in the same manner instead of SNCP8@st-p53pep. And then, the Mander’s overlap coefficient (MOC) was calculated in the Image J program (ver. 1.52a) via the JACoP plugin to identify co-localization between fluorescence signals over time. […] The cell viability was determined using cell counting kit-8 (CCK-8) assay by monitoring absorbance at 450 and 670 nm wavelength measured using a microplate reader (Molecular Devices, Inc., USA). The EC50 values of SNCPs@st-p53pep were determined by the logistic curve-fitting method with Origin (OriginLab, USA).

CytC in HepG2 cells = test: Western blot, cytochrome c protein level; assay type: cell-based, human
Experimental: as §1

HepG2 cells [3] = test: Cellular uptake and intracellular distribution, fluorescence microscopy; assay type: cell-based, human; conditions: SNCPs@st-p53pep 0.02 mg/mL or st-p53pep 2 μM, serum-free medium 4 h
Experimental: as §2

Bcl2 in HepG2 cells = test: Western blot, Bcl2 protein level; assay type: cell-based, human
Experimental: as §1

solubility in water (in words) [1]: poor water solubility
Structure (SMILES): CC(C)C[C@@H]1NC(=O)[C@H](CC(C)C)NC(=O)[C@H](CCCNC(=N)N)NC(=O)[C@H](Cc2c[nH]c3ccccc23)NC(=O)[C@H](CC(C)C)NC(=O)[C@H](CC(N)=O)NC(=O)[C@H](NC(=O)[C@H](Cc2ccccc2)NC(=O)[C@@H](NC(=O)[C@H](CCC(N)=O)NC(=O)[C@H](CCC(N)=O)NC(=O)[C@H](CO)NC(=O)[C@H](CCC(N)=O)NC(=O)CNC(=O)CNC(=O)c2ccc3c(c2)C(=O)OC32c3ccc(O)cc3Oc3cc(O)ccc32)[C@@H](C)O)CCCCNC(=O)CCc2cn(nn2)CCC[C@@H](C(=O)N[C@@H](CCC(N)=O)C(=O)N[C@@H](CC(N)=O)C(N)=O)NC1=O [st-p53pep]
p53 level relative to Control (p53 in HepG2 cells; /GAPDH, Control = 1): 1.126 | p53 rel. (/GAPDH) (p53 in HepG2 cells; intensity divided by GAPDH): 0.7745 | cell viability at corresponding dose (HepG2 cells [2]): more than 80% | CytC level relative to Control (CytC in HepG2 cells; /GAPDH, Control = 1): 1.304 | CytC rel. (/GAPDH) (CytC in HepG2 cells; intensity divided by GAPDH): 0.81 | cellular uptake: green FAM fluorescence in cells (in words) (HepG2 cells [3]): No fluorescence | Bcl2 level relative to Control (Bcl2 in HepG2 cells; /GAPDH, Control = 1): 1.005 | Bcl2 rel. (/GAPDH) (Bcl2 in HepG2 cells; intensity divided by GAPDH): 0.9585

Source: PMC9356039, “Multifunctional synthetic nano-chaperone for peptide folding and intracellular delivery” (Nature Communications, 2022)
